From patent publication US20180104224A1, “PHARMACEUTICAL COMPOSITIONS COMPRISING ANTIBACTERIAL AGENTS” (priority 2014, published 2018)

Experiments:
[1] = tested on: highly resistant strains of Pseudomonas aeruginosa; test: MIC determination, all strains; format: cell-based; details: highly resistant strains of P. aeruginosa
Protocol: (§1) The antibacterial activity of combinations according to the invention against resistant bacterial strains was investigated. Minimum Inhibitory Concentration (MIC) determination for the combinations according to invention was carried out in Muller Hinton Agar (MHA) (BD, USA) according to Clinical and Laboratory Standards Institute (CLSI) recommendations, (Clinical and Laboratory Standards Institute (CLSI), Performance Standards for Antimicrobial Susceptibility Testing, 20th Informational Supplement, M 100-S20, Volume 30, No. 1, 2010). In short, the test strains were adjusted to deliver about 10^4 CFU per spot with a multipoint inoculator (Applied Quality Services, UK). The plates were pored with MHA containing doubling concentration range of the test combinations according to invention. The plates were inoculated and were incubated at 35° C. for 18 hours.
The results on antibacterial activity of a carbapenem antibacterial agent selected from imipenem, meropenem, ertapenem and doripenem alone and in combination with Compound A or Compound B, against highly resistant strains of Pseudomonas aeruginosa are given in Table 1. […] For example, P. aeruginosa 2779 harbors resistance due to increased AmpC expression (300 times) and increased efflux; P. aeruginosa 1405 harbors resistance due to increased AmpC expression (600 times), reduced OprD expression and increased efflux; P. aeruginosa R 70 harbors resistance due to reduced OprD expression and increased efflux; and P. aeruginosa J 154 harbors resistance due to reduced OprD.

[2] = tested on: Pseudomonas aeruginosa 1405; test: Time kill study; format: cell-based; details: P. aeruginosa 1405; for Bacterial count (Log10 CFU/ml) 0 hour / Bacterial count (Log10 CFU/ml) 2 hour / Bacterial count (Log10 CFU/ml) 4 hour / Bacterial count (Log10 CFU/ml) 6 hour: single agent 16 mcg/ml
Protocol: (§2) The synergistic killing effect of the combinations according to invention was studied by performing time kill studies. In a typical time kill study, the freshly grown cultures were diluted to the required cell density (initial starting inoculum) in Cation adjusted Muller Hinton broth medium (BD, USA). The antibacterial agents (either alone or in combination) at the required concentrations were added into the culture-containing medium. The samples were incubated under shaking condition (120 rpm) at 37° C. Enumeration of viable bacterial count was done every 2 hour by diluting in normal saline and plating on to the Tryptic Soya Agar plates (BD, USA). The plates were incubated for 24 hours to arrive at the viable bacterial count. The results are expressed in terms of Log10 CFU per ml. In general, the decrease of 1 Log10 CFU/ml, corresponds to 90% killing of bacteria.

[3] = tested on: Pseudomonas aeruginosa R70; test: Time kill study; format: cell-based; details: P. aeruginosa R70
Protocol: as §2

P. aeruginosa 2779 = test: MIC determination in Muller Hinton Agar (CLSI); format: cell-based, Pseudomonas aeruginosa;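 further: MIC read as lowest concentration giving complete growth inhibition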
Protocol: as §1

P. aeruginosa 1405 = test: MIC determination in Muller Hinton Agar (CLSI); format: cell-based, Pseudomonas aeruginosa;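 further: MIC read as lowest concentration giving complete growth inhibition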
Protocol: as §1

P. aeruginosa J 154 = test: MIC determination in Muller Hinton Agar (CLSI); format: cell-based, Pseudomonas aeruginosa;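 on MIC (mcg/ml) of carbapenem in presence of [A] at 4 mcg/ml: MIC read as lowest concentration giving complete growth inhibition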;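 on MIC (mcg/ml) of carbapenem in presence of [B] at 4 mcg/ml: MIC read as lowest concentration giving complete growth inhibition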
Protocol: as §1

P. aeruginosa R 70 = test: MIC determination in Muller Hinton Agar (CLSI); format: cell-based, Pseudomonas aeruginosa
Protocol: as §1

[4] = Table 4, single agent 16 mcg/ml
[5] = Table 5, single agent 16 mcg/ml
[6] = in presence of Compound A at 4 mcg/ml
[7] = in presence of Compound B at 4 mcg/ml

C[C@@H](O)[C@H]1C(=O)N2C(C(=O)O)=C(S[C@@H]3CN[C@H](C(=O)Nc4cccc(C(=O)O)c4)C3)[C@H](C)[C@H]12 [Ertapenem, ertapenem]
MIC values (in words) ([1]; in presence of Compound A or Compound B): decreased significantly
MIC values (in words) ([1]; when used alone): higher MIC values
effect on bacterial counts through out the duration of the study (in words) ([2]; when used alone): failed to reduce the bacterial counts
Bacterial count (Log10 CFU/ml) 0 hour ([2]; Table 2): 6.84 Log10 CFU/ml
Bacterial count (Log10 CFU/ml) 2 hour ([2]; Table 2): 6.90 Log10 CFU/ml
Bacterial count (Log10 CFU/ml) 4 hour ([2]; Table 2): 7.87 Log10 CFU/ml
Bacterial count (Log10 CFU/ml) 6 hour ([2]; Table 2): 7.65 Log10 CFU/ml
Bacterial count (Log10 CFU/ml) 0 hour ([2]; Table 3): 6.81 Log10 CFU/ml
Bacterial count (Log10 CFU/ml) 2 hour ([2]; Table 3): 6.90 Log10 CFU/ml
Bacterial count (Log10 CFU/ml) 4 hour ([2]; Table 3): 7.87 Log10 CFU/ml
Bacterial count (Log10 CFU/ml) 6 hour ([2]; Table 3): 7.65 Log10 CFU/ml
effect on bacterial counts through out the duration of the study (in words) ([3]; when used alone): failed to reduce the bacterial counts
Bacterial count (Log10 CFU/ml) 0 hour [3, 4]: 6.62 Log10 CFU/ml
Bacterial count (Log10 CFU/ml) 2 hour [3, 4]: 6.87 Log10 CFU/ml
Bacterial count (Log10 CFU/ml) 4 hour ([3]; Table 4, single agent 16 mcg/ml, 4 hour): 7.47 Log10 CFU/ml
Bacterial count (Log10 CFU/ml) 6 hour [3, 4]: 8.16 Log10 CFU/ml
Bacterial count (Log10 CFU/ml) 0 hour [3, 5]: 6.44 Log10 CFU/ml
Bacterial count (Log10 CFU/ml) 2 hour [3, 5]: 6.46 Log10 CFU/ml
Bacterial count (Log10 CFU/ml) 4 hours ([3]; Table 5, single agent 16 mcg/ml, 4 hours): 7.17 Log10 CFU/ml
Bacterial count (Log10 CFU/ml) 6 hour [3, 5]: 7.13 Log10 CFU/ml
MIC (mcg/ml) of carbapenem in presence of [A] at 4 mcg/ml (P. aeruginosa 2779; [6]): 4 µg/mL
MIC (mcg/ml) of carbapenem in presence of [B] at 4 mcg/ml (P. aeruginosa 2779; [7]): 4 µg/mL
MIC (mcg/ml) of carbapenem in presence of [A] at 4 mcg/ml (P. aeruginosa 1405; [6]): 128 µg/mL
MIC (mcg/ml) of carbapenem in presence of [B] at 4 mcg/ml (P. aeruginosa 1405; [7]): 64 µg/mL
MIC (P. aeruginosa J 154; Pseudomonas aeruginosa, J154, agent alone, P. aeruginosa J 154 [Reduced OprD]): > 128 µg/mL
MIC (mcg/ml) of carbapenem in presence of [A] at 4 mcg/ml (P. aeruginosa J 154; in presence of Compound A at 4 mcg/ml, P. aeruginosa J 154): >128 µg/mL
MIC (mcg/ml) of carbapenem in presence of [B] at 4 mcg/ml (P. aeruginosa J 154; in presence of Compound B at 4 mcg/ml, P. aeruginosa J 154): 128 µg/mL
MIC (P. aeruginosa R 70; Pseudomonas aeruginosa, R70, 18 h, agent alone, P. aeruginosa R 70 [Reduced OprD + increased efflux]): > 128 µg/mL
MIC (mcg/ml) of carbapenem in presence of [A] at 4 mcg/ml (P. aeruginosa R 70; in presence of Compound A at 4 mcg/ml, P. aeruginosa R 70): >128 µg/mL
MIC (mcg/ml) of carbapenem in presence of [B] at 4 mcg/ml (P. aeruginosa R 70; in presence of Compound B at 4 mcg/ml, P. aeruginosa R 70): ≤0.12 µg/mL
